The results in this text go back to patent publication US7169778B2, “Pteridinones as kinase inhibitors” (Warner-Lambert Company, priority 1999, dated 2007).

SMILES strings stand for the structures.

The target of series [1] is N-terminal truncated Wee 1 (Homo sapiens, UniProt P30291). The experiment in a line: Wee 1 OY kinase assay. The series is classed as biochemical. The settings on record: read-out: WEE1OY IC50. The protocol:
These kinase assays are carried out on 96-well filter plates (Millpore, Cat. MADPN0B50) in 50 μL kinase assay buffer (50 mM Tris, pH 8.0, 10 mM NaCl, 10 mM MgCl2, 10 μM ATP with 0.25 μCi [r-32P]ATP, 1 mM DTT) with 0.1 μg purified N-terminal truncated Wee 1 and 6 μg poly(Orn, Tyr)4:1 (Sigma, P4534). The assay is started by adding ATP and incubating at room temperature for 20 minutes with shaking. The reactions are terminated by adding 50 μL ice-cold 20% TCA (trichloracetic acid) with 0.1 M sodium pyrophosphate and shaking the resultant mixture for 1 minute. The plate is then incubated at 4° C. for 1 hour to allow protein to precipitate. These plates are then washed 5 times with 200 μL ice-cold 10% TCA and with 0.1 M sodium pyrophosphate per wash. Twenty-five microliters scintillation liquid is then added to each well, and the plate is counted in Wallac's MicroBeta counter 1450.

Series [2] addresses C-src kinase (Homo sapiens, UniProt P12931). Put plainly: C-src kinase assay. The series is classed as biochemical. How it is done:
C-src kinase was purified from baculovirus infected insect cell lysates using an antipeptide monoclonal antibody directed against the N-terminal amino acids (amino acids 2–17) of c-src. The antibody, covalently linked to 0.65 μm latex beads, was added to a suspension of insect cell lysis buffer comprised of 150 mM NaCl, 50 mM Tris pH 7.5, 1 mM DTT, 1% NP-40, 2 mM EGTA, 1 mM sodium vanadate, 1 mM PMSF, 1 μg/mL each of leupeptin, pepstatin, and aprotinin. Insect cell lysate containing c-src protein was incubated with these beads for 3 to 4 hours at 4° C. with rotation. At the end of the lysate incubation, the beads were rinsed three times in lysis buffer, resuspended in lysis buffer containing 10% glycerol, and frozen. These latex beads were thawed, rinsed three times in assay buffer (40 mM Tris, pH 7.5, 5 mM mgCl2) and suspended in the same buffer. In a Millipore 96-well plate with a 0.65 μm polyvinylidine membrane bottom were added the reaction components: 10 μL C-src beads, 10 μL of 2.5 mg/mL poly GluTyr substrate, 5 μM ATP containing 0.2 μCi labeled ^32P-ATP, 5 μL DMSO containing inhibitors or as a solvent control, and buffer to make the final volume 125 μL. The reaction was started at room temperature by addition of the ATP and quenched 10 minutes later by the addition of 125 μL of 30% TCA, 0.1 M sodium pyrophosphate for 5 minutes on ice. The plate was then filtered and the wells washed with two […] aliquots of 15% TCA, 0.1 M pyrophosphate. The filters were then punched, counted in a liquid scintillation counter, and the data examined for inhibitory activity in comparison to a known inhibitor such as erbstatin. The method is also described in J. Med. Chem., 1994;37:598–609.

The target in series [3] is T1, human FGF-1 (flg) receptor tyrosine kinase (Homo sapiens, UniProt P11362).
T1 construct: amplify a fragment of DNA that codes for the intracellular tyrosine kinase domain; made in house; host or cells: SF9 insect cells (baculovirus)
T1 sequence (P11362 478-767 limits assumed): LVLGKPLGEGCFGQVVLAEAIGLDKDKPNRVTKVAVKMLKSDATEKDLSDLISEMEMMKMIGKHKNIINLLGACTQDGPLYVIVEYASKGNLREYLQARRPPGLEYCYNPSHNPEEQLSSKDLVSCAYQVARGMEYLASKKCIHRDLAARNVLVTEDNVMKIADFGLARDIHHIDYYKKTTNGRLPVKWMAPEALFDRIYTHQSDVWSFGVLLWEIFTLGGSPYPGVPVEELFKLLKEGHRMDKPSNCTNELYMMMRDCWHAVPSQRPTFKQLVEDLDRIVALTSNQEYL
The experiment in a line: FGF receptor tyrosine kinase assay. The series is classed as biochemical. The settings on record: for inhibition at 5 µM: @ 5 (unit μm); for inhibition at 0.5 µM: @ 0.5 (unit μm). The text has this: (§1) Full-length cDNAs for the mouse PDGF-β and human FGF-1 (flg) receptor tyrosine kinases were obtained from J. Escobedo and prepared as described in J. Biol. Chem., 1991;262:1482–1487. PCR primers were designed to amplify a fragment of DNA that codes for the intracellular tyrosine kinase domain. The fragment was inserted into a baculovirus vector, cotransfected with AcMNPV DNA, and the recombinant virus isolated. SF9 insect cells were infected with the virus to overexpress the protein, and the cell lysate was used for the assay. Assays were performed in 96-well plates (100 μL/incubation/well), and conditions were optimized to measure the incorporation of ^32P from γ^32P-ATP into a glutamate-tyrosine co-polymer substrate. Briefly, to each well was added 82.5 μL of incubation buffer containing 25 mM Hepes (pH 7.0), 150 mM NaCl, 0.1% Triton X-100, 0.2 mM PMSF, 0.2 mM Na3VO4, 10 mM MnCl2, and 750 μg/mL of Poly (4:1) glutamate-tyrosine followed by 2.5 μL of inhibitor and 5 μL of enzyme lysate (7.5 μg/μL FGF-TK or 6.0 μg/μL PDGF-TK) to initiate the reaction. Following a 10 minute incubation at 25° C., […] of γ^32P-ATP (0.4 μCi plus 50 μM ATP) was added to each well, and samples were incubated for an additional 10 minutes at 25° C. The reaction was terminated by the addition of 100 μL of 30% TCA containing 20 mM sodium pyrophosphate and precipitation of material onto glass fiber mats (Wallac). Filters were washed three times with 15% TCA containing 100 mM sodium pyrophosphate, and the radioactivity retained on the filters counted in a Wallac 1250 Betaplate reader. Nonspecific activity was defined as radioactivity retained on the filters following incubation of samples with buffer alone (no enzyme). Specific enzymatic activity (enzyme plus buffer) was defined as total activity minus nonspecific activity. The concentration of a compound that inhibited specific activity by 50% (IC50) was determined based on the inhibition curve.

The target of series [4] is T2, mouse PDGF-β receptor tyrosine kinase (Mus musculus, UniProt P05622).
T2 construct: amplify a fragment of DNA that codes for the intracellular tyrosine kinase domain; made in house; host or cells: SF9 insect cells (baculovirus)
T2 sequence (P05622 599-961 limits assumed): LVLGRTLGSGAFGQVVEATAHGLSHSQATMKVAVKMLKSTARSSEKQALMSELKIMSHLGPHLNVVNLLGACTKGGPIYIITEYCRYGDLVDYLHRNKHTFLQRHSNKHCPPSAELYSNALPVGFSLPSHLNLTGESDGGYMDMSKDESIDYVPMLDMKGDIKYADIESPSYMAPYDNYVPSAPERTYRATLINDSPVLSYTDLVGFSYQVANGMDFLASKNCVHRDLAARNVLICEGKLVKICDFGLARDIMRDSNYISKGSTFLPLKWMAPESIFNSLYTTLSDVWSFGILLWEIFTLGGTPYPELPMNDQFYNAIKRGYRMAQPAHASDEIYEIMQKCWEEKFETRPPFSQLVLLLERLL
The experiment in a line: PDGF receptor tyrosine kinase assay. The series is classed as biochemical.
Excerpt: as §1

Series [5] concerns the target cdk4/cyclin D1 complex (Homo sapiens, UniProt P11802). The experiment in a line: Cyclin-dependent kinase 4 (CDK4) assay. The series is classed as biochemical. The settings on record: cyclin dependent kinase 4/cyclin D1 complex; read-out: CDK4D IC50. The protocol:
Enzyme assays for IC50 determinations (Table 1) and kinetic evaluation were performed in 96-well filter plates (Millipore MADVN6550) The total volume was 0.1 mL containing a final concentration of 20 mM TRIS (tris[hydroxmethyl]aminomethane), at pH 7.4, 50 mM NaCl, 1 mM dithiothreitol, 10 mM mgCl2, 25 μM ATP containing 0.25 μCi of [^32P]ATP, 20 ng of cdk4/cyclin D1 complex, 1 μg of retinoblastoma and appropriate dilutions of a compound of the present invention. All components except the ATP were added to the wells, and the plate was placed on a plate mixer for 2 minutes. The reaction was started by adding [^32P]ATP and the plate incubated at 25° C. for 15 minutes. The reaction was terminated by addition of 0.1 mL of 20% TCA. The plate was kept at 4° C. for at least 1 hour to allow the substrate to precipitate. The wells were then washed five times with 0.2 mL of 10% TCA and ^32p incorporation determined with a beta plate counter (Wallac Inc., Gaithersburg, Md.).

Series [6] has as its target cdk2/cyclinA (Homo sapiens, UniProt P24941). The experiment in a line: Cyclin-dependent kinase assay cdk2/cyclinA. The series is classed as biochemical. Particulars: cyclin dependent kinase 2/cyclin A complex; read-out: CDK2A IC50. The protocol: (§2) All components except the ATP were added to the wells, and the plate was placed on a plate mixer for 2 minutes. The reaction was begun by addition of [^32P]ATP, and the plate was incubated at 25° C. for 15 minutes. The reaction was terminated by addition of 0.1 mL of 20% TCA. The plate was kept at 4° C. for at least 1 hour to allow the substrate to precipitate. The wells were then washed five times with 0.2 mL of 10% TCA and ^32P incorporation determined using a beta plate counter (Wallac Inc., Gaithersburg, Md.).

The target of series [7] is cdk2/cyclinE (Homo sapiens, UniProt P24941). Put plainly: Cyclin-dependent kinase assay cdk2/cyclinE. The series is classed as biochemical. Particulars: cyclin dependent kinase 2/cyclin E complex; read-out: CDK2E IC50. The protocol:
as §2

Series [8] concerns the target cdc2/cyclinB (Homo sapiens, UniProt P06493). The experiment in a line: Cyclin-dependent kinase assay cdc2/cyclinB. The series is classed as biochemical. Particulars: cyclin dependent kinase 1/cyclin B complex; read-out: CDK1B IC50. The protocol: as §2
The mark [9] stands for this setting: read-out: FGF % @ concentration.

Chain of cdk4/cyclin D1 complex (P11802 whole entry, species assumed): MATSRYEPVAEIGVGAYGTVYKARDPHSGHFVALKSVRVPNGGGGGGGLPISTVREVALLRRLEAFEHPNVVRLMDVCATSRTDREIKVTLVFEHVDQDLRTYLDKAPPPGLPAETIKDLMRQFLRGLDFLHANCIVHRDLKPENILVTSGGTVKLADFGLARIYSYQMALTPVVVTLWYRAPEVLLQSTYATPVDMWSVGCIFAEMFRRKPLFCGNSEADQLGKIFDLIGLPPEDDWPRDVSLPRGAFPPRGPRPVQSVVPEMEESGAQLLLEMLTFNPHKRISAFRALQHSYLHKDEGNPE
Chain of cdk4/cyclin D1 complex (P24385 whole entry partner, species assumed): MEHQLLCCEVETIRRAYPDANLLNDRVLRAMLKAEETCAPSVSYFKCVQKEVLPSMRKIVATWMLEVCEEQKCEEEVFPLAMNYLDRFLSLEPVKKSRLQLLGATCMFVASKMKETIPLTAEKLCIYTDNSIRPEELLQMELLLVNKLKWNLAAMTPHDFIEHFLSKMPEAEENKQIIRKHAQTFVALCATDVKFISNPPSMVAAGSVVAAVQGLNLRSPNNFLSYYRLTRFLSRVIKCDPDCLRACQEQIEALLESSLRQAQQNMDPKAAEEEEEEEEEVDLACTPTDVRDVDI
Chain of N-terminal truncated Wee 1 (P30291 299-569 limits assumed): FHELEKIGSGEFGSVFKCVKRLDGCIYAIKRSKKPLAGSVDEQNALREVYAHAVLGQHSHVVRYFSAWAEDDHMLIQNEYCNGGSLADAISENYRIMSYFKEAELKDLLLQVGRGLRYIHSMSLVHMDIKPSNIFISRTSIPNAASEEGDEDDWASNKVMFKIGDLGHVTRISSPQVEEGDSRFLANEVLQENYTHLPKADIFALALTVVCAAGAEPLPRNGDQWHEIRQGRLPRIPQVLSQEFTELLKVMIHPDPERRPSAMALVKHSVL
Chain of cdc2/cyclinB (P06493 whole entry, species assumed): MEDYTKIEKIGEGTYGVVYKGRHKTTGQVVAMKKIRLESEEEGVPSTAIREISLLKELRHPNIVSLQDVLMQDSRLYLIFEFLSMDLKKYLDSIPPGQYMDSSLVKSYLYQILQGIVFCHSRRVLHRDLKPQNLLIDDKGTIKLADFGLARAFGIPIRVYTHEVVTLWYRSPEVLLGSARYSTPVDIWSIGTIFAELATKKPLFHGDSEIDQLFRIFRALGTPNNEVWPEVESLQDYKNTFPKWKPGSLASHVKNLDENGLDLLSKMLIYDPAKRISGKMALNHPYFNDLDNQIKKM
Chain of cdc2/cyclinB (P14635 whole entry partner, species assumed): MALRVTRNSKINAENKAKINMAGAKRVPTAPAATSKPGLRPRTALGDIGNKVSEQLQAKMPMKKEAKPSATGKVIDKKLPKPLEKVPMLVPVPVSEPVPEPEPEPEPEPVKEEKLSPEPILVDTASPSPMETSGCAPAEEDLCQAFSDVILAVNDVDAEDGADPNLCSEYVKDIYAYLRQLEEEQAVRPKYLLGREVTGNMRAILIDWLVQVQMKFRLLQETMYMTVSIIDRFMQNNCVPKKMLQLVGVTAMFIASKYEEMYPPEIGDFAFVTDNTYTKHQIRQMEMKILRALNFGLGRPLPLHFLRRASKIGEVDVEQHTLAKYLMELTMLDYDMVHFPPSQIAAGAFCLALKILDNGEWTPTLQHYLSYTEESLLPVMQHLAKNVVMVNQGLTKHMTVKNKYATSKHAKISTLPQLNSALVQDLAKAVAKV
Chain of C-src kinase (P12931 whole entry, the tested form may be a part): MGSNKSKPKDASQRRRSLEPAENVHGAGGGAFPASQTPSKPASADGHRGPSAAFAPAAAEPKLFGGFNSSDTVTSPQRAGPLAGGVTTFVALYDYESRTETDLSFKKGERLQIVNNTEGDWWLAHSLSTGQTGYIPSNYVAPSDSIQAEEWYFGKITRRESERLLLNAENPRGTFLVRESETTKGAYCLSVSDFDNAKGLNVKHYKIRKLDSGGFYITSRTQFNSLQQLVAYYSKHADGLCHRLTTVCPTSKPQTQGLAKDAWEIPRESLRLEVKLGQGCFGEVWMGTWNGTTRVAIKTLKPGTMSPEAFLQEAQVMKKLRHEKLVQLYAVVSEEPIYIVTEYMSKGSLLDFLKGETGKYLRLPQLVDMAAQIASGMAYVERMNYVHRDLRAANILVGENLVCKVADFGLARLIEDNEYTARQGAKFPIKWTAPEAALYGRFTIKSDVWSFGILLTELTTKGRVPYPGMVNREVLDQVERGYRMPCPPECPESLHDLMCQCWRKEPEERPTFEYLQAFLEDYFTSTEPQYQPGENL

In the case of `CCN(CC)C(=O)c1ccc(Nc2ncc3nc(-c4c(Cl)cccc4Cl)c(=O)n(C)c3n2)cc1` [Compound 6, 6-(2,6-Dichlorophenyl)-2-[[4-(diethylaminocarbonyl)phenyl]amino]-8-methyl-8H-pteridin-7-one], the melting point (usually the temperature of the solid-liquid transition) fell in the range of 239 to 241 °C. In addition, the IC50 (commonly the concentration that inhibits the measured activity by half) in [1] was found to be 987 nM. The compound further came in with a concentration for half-maximal inhibition (IC50) in series [2] of 290 nM. The compound further returned a half-maximal inhibitory concentration (IC50) in [3] of 50 nM. In series [4], this compound displayed a half-maximal inhibitory concentration (IC50) of 3130 nM.

Take `O=c1cnc2cnc(Nc3ccc(N4CCOCC4)cc3)nc2n1C1CCCC1` [Compound 7, 8-Cyclopentyl-2-[[4-(morpholin-4-yl)phenyl]amino]-8H-pteridin-7-one]: the melting point was 182 to 184 °C. For the same compound, in series [1], the IC50 is more than 50000 nM. Further, the half-maximal inhibitory concentration (IC50) in series [2] was found to be 8470 nM. In series [3] (setting [9]), the inhibition at 5 µM was found to be 33%. Besides, the 50% inhibitory concentration (IC50) in series [4] was found to be 12000 nM. In addition, in series [5], the IC50 worked out at 60 nM. In addition, the concentration for half-maximal inhibition (IC50) in series [6] was 64 nM. In addition, the IC50 in [7] was found to be 650 nM.

As to `CN1CCN(c2ccc(Nc3ncc4ncc(=O)n(C5CCCC5)c4n3)cc2)CC1` [Compound 8, 8-Cyclopentyl-2-[[4-(4methylpiperazin-1-yl)phenyl]amino]-8H-pteridin-7-one], the melting point lay within 208 to 211 °C. For the same compound, in series [1], the IC50 is more than 50000 nM. For the same compound, half-maximal inhibition in series [2] (IC50) required 3350 nM. Moreover, the inhibition at 0.5 µM in series [3] (setting [9]) is 41%. Half-maximal inhibition in series [4] (IC50) required 6000 nM. The IC50 in series [5] was found to be 41 nM. In addition, the half-maximal inhibitory concentration (IC50) in series [6] worked out at 260 nM. Also, in series [7], the IC50 was 950 nM.

For the compound `Cc1nc2cnc(Nc3ccc(N4CCN(C)CC4)cc3)nc2n(C2CCCC2)c1=O` [Compound 9, 8-Cyclopentyl-6methyl-2-[[4-(4-methylpiperazin-1-yl)phenyl]amino]-8H-pteridin-7-one], the melting point lay within 210 to 211 °C. In addition, in series [1], the IC50 is more than 50000 nM. In addition, in series [2], the IC50 is 3000 nM. For the same compound, the inhibition at 0.5 µM in series [3] (setting [9]) is 41%. Besides, the “PDGF % @ concentration” value in series [4] (@ 5 (unit μm)) is listed as 59% @ 5. Also, the IC50 in [5] is 47 nM. In addition, the IC50 in [6] stood at 2780 nM. Further, the IC50 in [7] is 41000 nM.

Regarding `Cc1nc2cnc(Nc3ccc(N4CCOCC4)cc3)nc2n(C2CCCC2)c1=O` [Compound 10, 8-Cyclopentyl-6-methyl-2-[[4-(morpholin-4-yl)phenyl]amino]-8H-pteridin-7-one], the melting point was 230 to 234 °C. For the same compound, in series [1], the IC50 is more than 50000 nM. In [2], this compound registered an IC50 of 34000 nM. For the same compound, in series [3] (@ 50 (unit μm), read-out: FGF % @ concentration), the inhibition at 50 µM is 57%. In addition, the IC50 in [4] is more than 50000 nM. Also, the concentration for half-maximal inhibition (IC50) in series [5] amounted to 440 nM. Further, the IC50 in series [6] is 1840 nM. Besides, the concentration for half-maximal inhibition (IC50) in [7] amounted to 8000 nM.

Compound `O=c1cnc2cnc(Nc3ccncc3)nc2n1C1CCCC1` [Compound 11, 8-Cyclopentyl-2-[(pyridin-4-yl)amino]-8H-pteridin-7-one] gave a melting point of 236 to 238 °C. For the same compound, the IC50 in [1] was more than 50000 nM. In [2], this compound came in with an IC50 of 11000 nM. Further, in series [3] (setting [9]), the inhibition at 5 µM stood at 31%. Besides, the IC50 in series [4] was more than 50000 nM. For the same compound, the 50% inhibitory concentration (IC50) in [5] was determined as 1250 nM. The concentration for half-maximal inhibition (IC50) in series [6] stood at 36 nM. Also, the IC50 in series [8] was 354 nM. Further, the IC50 in [7] is 50 nM.

Turning to `O=c1cnc2cnc(Nc3ccc(N4CCNCC4)cc3)nc2n1C1CCCC1` [Compound 16, 8-Cyclopentyl-2-[[4-(piperazin-1-yl)phenyl]amino]-8H-pteridin-7-one], the IC50 in [2] turned out to be 3300 nM; in series [5], 7 nM; in [6], 180 nM; in series [8] it was 750 nM; in series [7], 610 nM.

In the case of `NC1CCN(c2ccc(Nc3ncc4ncc(=O)n(C5CCCC5)c4n3)cc2)C1` (stereo not shown) [Compound 17, 2-[[4-(3-Aminopyrrolidin-1-yl)phenyl]amino]-8-cyclopentyl-8H-pteridin-7-one], the IC50 in series [4] amounted to 2190 nM; in series [5], 43.5 nM; in [6] it was 94 nM; in series [8], 400 nM; in series [7], 1900 nM.

`CC(C)(C)OC(=O)N1CCN(c2ccc(Nc3ncc4ncc(=O)n(C5CCCC5)c4n3)cc2)CC1` [Compound 52, 2-[[4-[4(tert-Butoxycarbonyl)piperazin-1-yl]phenyl]amino]-8-cyclopentyl-8H-pteridin-7-one] came in with a melting point of 215 to 217 °C. The compound further yielded a concentration for half-maximal inhibition (IC50) in series [2] of more than 50000 nM. In addition, the 50% inhibitory concentration (IC50) in series [5] worked out at 1800 nM. Moreover, the half-inhibitory concentration (IC50) in series [6] turned out to be 530 nM. In series [7], the IC50 is 4500 nM.
